Test results reported in PubChem BioAssay (NCI).
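All cell lines were grown in 96-well plates and treated with compound for 48 hours. At the GI50, growth is halved. TGI denotes the concentration required for complete inhibition of growth.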

Tests used:
Test in all cases: growth of human tumour cells (NCI), 48 h
U251 CNS = test system: U251 CNS
SF-268 CNS = test system: SF-268 CNS
NCI-H23 lung = test system: NCI-H23 lung
NCI-H522 lung = test system: NCI-H522 lung
UO-31 renal = test system: UO-31 renal
ACHN renal = test system: ACHN renal
HOP-62 NSCLC = test system: HOP-62 NSCLC
HCT-15 colon = test system: HCT-15 colon
LOX IMVI melanoma = test system: LOX IMVI melanoma
CAKI-1 renal = test system: CAKI-1 renal

Structure (SMILES)	TGI (U251 CNS) [µM]	TGI (SF-268 CNS) [µM]	TGI (NCI-H23 lung) [µM]	TGI (NCI-H522 lung) [µM]	TGI (UO-31 renal) [µM]	TGI (ACHN renal) [µM]	TGI (HOP-62 NSCLC) [µM]	TGI (HCT-15 colon) [µM]	TGI (LOX IMVI melanoma) [µM]	TGI (CAKI-1 renal) [µM]	GI50 (U251 CNS) [µM]	GI50 (SF-268 CNS) [µM]	GI50 (NCI-H23 lung) [µM]	GI50 (NCI-H522 lung) [µM]	GI50 (UO-31 renal) [µM]	GI50 (ACHN renal) [µM]	GI50 (HCT-15 colon) [µM]	GI50 (LOX IMVI melanoma) [µM]	GI50 (CAKI-1 renal) [µM]
CCN(CCO)C(=O)C1(c2ccccc2)CCCCC1	> 10	> 10	> 10	> 10	> 10	> 10	> 10	> 10	> 10	> 10	–	–	–	–	–	–	–	–	–
Ic1ccc2c(c1)N(c1ccccc1)c1cc(N=c3ccc4nc5ccc(I)cc5n(-c5ccccc5)c-4c3)ccc1N2	> 100	> 100	> 100	69	> 100	> 100	> 100	> 100	–	> 100	–	–	–	–	–	–	–	–	–
OCCCNc1nc(=S)[nH]c2[nH]ncc12	> 100	92.2	> 100	> 100	> 100	> 100	–	> 100	84.5	> 100	40.1	32.7	51.7	26.1	44.1	40	81.9	25.4	43.3
CC(CCC(=O)O)(c1ccc(O)cc1)c1ccc(O)cc1	> 100	> 100	> 100	> 100	> 100	> 100	> 100	> 100	> 100	> 100	–	–	–	–	–	–	–	–	–
C[N+](C)(C)CCCSc1nc2ccccc2[nH]1	> 100	> 100	> 100	> 100	> 100	> 100	> 100	> 100	> 100	> 100	–	–	–	–	–	–	–	–	–
O=S(=O)(O)C1=C2Sc3ccccc3N=C2c2ccccc2C1	25.4	27.5	31.1	31.3	33.6	25.1	35	27.3	25.5	34.7	–	–	–	–	–	–	–	–	–
COc1ccc(CC2CCc3nc(N)nc(N)c3C2)cc1OC (centres undefined)	> 100	> 29	> 50	12.6	> 100	> 63.1	> 100	98	21.1	> 100	–	–	–	–	–	–	–	–	–
c1nc(N2CC2)c2cnn(C3CCCCO3)c2n1 (centres undefined)	> 100	> 100	> 100	> 100	> 100	> 100	> 100	> 100	> 100	> 100	–	–	–	–	–	–	–	–	–
CN(CCC(=O)O)C1=Nc2ccc(Cl)cc2C(c2ccccc2)=[N+]([O-])C1	> 100	> 100	> 100	> 100	> 100	> 100	> 100	> 100	> 100	> 100	–	–	–	–	–	–	–	–	–
CCOC(=O)NC(=O)c1cn(CCNCCO)c(=O)[nH]c1=O	> 100	> 100	> 100	> 100	–	> 100	> 100	> 100	> 100	> 100	–	–	–	–	–	–	–	–	–
O=C(N/N=C/C=C/c1ccccc1)[C@H](O)[C@@H](O)C(=O)N/N=C/C=C/c1ccccc1	> 100	> 100	> 100	> 100	> 100	> 100	–	> 100	> 100	–	–	–	–	–	–	–	–	–	–
C[C@]12CC[C@H](OC(=O)Cc3ccc(N(CCCl)CCCl)cc3)CC1=CC[C@@H]1[C@@H]2CC[C@]2(C)C(=O)CC[C@@H]12	> 100	> 100	> 100	> 100	> 100	> 100	> 100	> 100	> 100	> 100	–	–	–	–	–	–	–	–	–
CN1CCN(c2ccc3[nH]c(-c4cc(O)c5c(nc(CO)n5C)c4O)nc3n2)CC1	44.2	> 100	> 100	> 100	> 100	> 100	> 100	> 100	37.9	> 100	–	–	–	–	–	–	–	–	–
O=C(O)CCC(=O)Nc1ccc2ccccc2c1	> 100	> 100	> 100	> 100	> 100	> 100	> 100	> 100	> 100	> 100	–	–	–	–	–	–	–	–	–
